These results are taken from patent US20210292330A1, “PYRROLIDINE-FUSED HETEROCYCLES” (Erasca, Inc., priority 2020, published 2021).

The target of this experiment is T1, KRAS 4B G12C protein (Homo sapiens, UniProt P01116, G12C).
T1 construct: This protein contained 188 amino acids in total, including an N-terminal 6-Histidine tag; made in house; host or cells: E. coli BL21
The experiment in a line: In vitro covalent adduct formation (CAF) assay by LC-MS. As to conditions: compound 10 μM, protein 5 μM, 22° C., percentage of protein bound by the compound. The class given is binding. How it is done: In vitro covalent adduct formation assay: Covalent adduct formation (CAF) reactions between Cys12 of the KRAS 4B G12C protein and some of the compounds of Table 1 were measured in vitro using liquid chromatography-mass spectrometry (LC-MS).
Recombinant Human KRAS 4B protein containing the G12C mutation was used in compound screening experiments. This protein contained 188 amino acids in total, including an N-terminal 6-Histidine tag, followed by a Tobacco Etch Virus (TEV) tag, followed by residues 1-169 of the native KRAS 4B sequence. The exact mass of the protein was 21,310 Da as determined by mass spectrometry. The full amino acid sequence is shown below:
The recombinant protein was expressed in E. coli BL21 cells and purified using affinity chromatography via a Ni-NTA column. […] Pure KRAS 4B G12C protein was diluted to a concentration of 5 μM in Tris Buffered Saline, pH 7.4. The compounds were dissolved in DMSO and added to the diluted protein to make a 10 μM concentration. The total DMSO concentration in the reaction was 4%. The reaction was mixed by pipetting and incubated at 22° C. for one hour. Aliquots of the reaction were taken over time and diluted 2:1 in 0.1% formic acid. The intact mass of the protein samples was measured by LC-MS using a QExactive+ mass spectrometer (Thermo Scientific). An amount of 500 ng total protein was injected onto a C8 reverse phase column, eluted with a seven-minute gradient of 30%-90% acetonitrile/0.1% formic acid, and analyzed for intact mass by the mass spectrometer. Adducts identified were confirmed to be within 1 Dalton of the expected mass, and the relative ratios of free:adduct protein were used to quantify the percentage of protein bound by the compound. CAF reactions were run in duplicate, with a typical variability of ±5%.

Take `C=CC(=O)N1CCN(c2nc(OC[C@@H]3CCCN3C)nc3c2CN(C(C)c2ccccc2Cl)C3)C[C@@H]1CC#N` (some centres unmarked) [1-120]: the “CAF (10 minutes/60 minutes) at 10 micromolar: 10 minutes” value (“CAF … at 10 micromolar: 10 minutes” below) turned out to be 57% and the “CAF (10 minutes/60 minutes) at 10 micromolar: 60 minutes” value (“CAF … at 10 micromolar: 60 minutes” for short) amounted to 74%.

For `C=CC(=O)N1CCN(c2nc(OC[C@@H]3CCCN3C)nc3c2CN(Cc2c(F)cccc2OC(F)F)C3)C[C@@H]1CC#N` [1-58], the “CAF … at 10 micromolar: 10 minutes” value was found to be 96% and the “CAF … at 10 micromolar: 60 minutes” value is recorded as 98%.

In the case of `C=CC(=O)N1CCN(c2nc(OC[C@@H]3CCCN3C)nc3c2CN(Cc2cc(C(F)(F)F)ccc2C)C3)C[C@@H]1CC#N` [1-8], the “CAF … at 10 micromolar: 10 minutes” value came to 20% and the “CAF … at 10 micromolar: 60 minutes” value is reported as 62%.

With `C=CC(=O)N1CCN(c2nc(OC[C@@H]3CCCN3C)nc3c2CN(Cc2cc(O)ccc2C)C3)C[C@@H]1CC#N` [1-40], the “CAF … at 10 micromolar: 10 minutes” value came to 98%/ 98% and the “CAF … at 10 micromolar: 60 minutes” value was 98%/ 98%.

On to `C=C(F)C(=O)N1CCN(c2nc(OC[C@@H]3CCCN3C)nc3c2CN(Cc2c(Cl)ccc(O)c2Cl)C3)C[C@@H]1CC#N` [1-322], for which the “CAF … at 10 micromolar: 10 minutes” value amounted to 76% and the “CAF … at 10 micromolar: 60 minutes” value was 94%.

For `C=CC(=O)N1CCN(c2nc(OC[C@@H]3CCCN3C)nc3c2CN(Cc2cc(C)ccc2Cl)C3)C[C@@H]1CC#N` [1-80], the “CAF … at 10 micromolar: 10 minutes” value was determined as 94% and the “CAF … at 10 micromolar: 60 minutes” value stood at 96%.

Take `C=CC(=O)N1CCN(c2nc(OC[C@@H]3CCCN3C)nc3c2CN(Cc2cc(F)ccc2Cl)C3)C[C@@H]1CC#N` [1-25]: the “CAF … at 10 micromolar: 10 minutes” value came to 78% and the “CAF … at 10 micromolar: 60 minutes” value was found to be 93%.

In the case of `C=CC(=O)N1CCN(c2nc(OC[C@@H]3CCCN3C)nc3c2CN(Cc2cc(O)c(Cl)cc2C)C3)C[C@@H]1CC#N` [1-331], the “CAF … at 10 micromolar: 10 minutes” value was determined as 32% and the “CAF … at 10 micromolar: 60 minutes” value is listed as 76%.

Turning to `C=CC(=O)N1CCN(c2nc(OC[C@@H]3CCCN3C)nc3c2CN(c2cccc4cccc(C)c24)C3)C[C@@H]1CC#N` [1-17, 2-((S)-1-acryloyl-4-(6-(8-methylnaphthalen-1-yl)-2-(((S)-1-methylpyrrolidin-2-yl)methoxy)-6,7-dihydro-5H-pyrrolo[3,4-d]pyrimidin-4-yl)piperazin-2-yl)acetonitrile], the “CAF … at 10 micromolar: 10 minutes” value was determined as 90% and the “CAF … at 10 micromolar: 60 minutes” value is 99%.

Consider `C=CC(=O)N1CCN(c2nc(OCC3CCCC3)nc3c2CN(Cc2c(F)cccc2OC)C3)C[C@@H]1CC#N` [1-66], for which the “CAF … at 10 micromolar: 10 minutes” value came to 1% and the “CAF … at 10 micromolar: 60 minutes” value was found to be 14%.

In the case of `C=C(F)C(=O)N1CCN(c2nc(OC[C@@H]3CCCN3C)nc3c2CN(Cc2cc(O)ccc2Cl)C3)C[C@@H]1CC#N` [1-87], the “CAF … at 10 micromolar: 10 minutes” value turned out to be 97% and the “CAF … at 10 micromolar: 60 minutes” value is reported as 99%.

In the case of `C=CC(=O)N1CCN(c2nc(OCC3CCCC3)nc3c2CN(Cc2c(O)cccc2F)C3)C[C@@H]1CC#N` [1-71], the “CAF … at 10 micromolar: 10 minutes” value came out at 9% and the “CAF … at 10 micromolar: 60 minutes” value was 45%.

With `C=CC(=O)N1CCN(c2nc(OC[C@@H]3CCCN3C)nc3c2CN(Cc2cccc4nc[nH]c24)C3)C[C@@H]1CC#N` [1-201], the “CAF … at 10 micromolar: 10 minutes” value is recorded as 79% and the “CAF … at 10 micromolar: 60 minutes” value turned out to be 94%.

`C=CC(=O)N1CCN(c2nc(OC[C@@H]3CCCN3C)nc3c2CN(Cc2c(Cl)ccc(O)c2C)C3)C[C@@H]1CC#N` [1-312]: the “CAF … at 10 micromolar: 10 minutes” value turned out to be 95%/ 95% and the “CAF … at 10 micromolar: 60 minutes” value came to 95%/ 95%.

Take `C=C(F)C(=O)N1CCN(c2nc(OCc3cncn3C)nc3c2CN(C2CCc4ccccc42)C3)C[C@@H]1CC#N` (some centres unmarked) [1-140]: the “CAF … at 10 micromolar: 10 minutes” value is recorded as 0%/ 0% and the “CAF … at 10 micromolar: 60 minutes” value came to 0%/ 0%.

Consider `C=CC(=O)N1CCN(c2nc(OC[C@@H]3CCCN3C)nc3c2CN(C2CCc4ccc(O)c(Cl)c42)C3)C[C@@H]1CC#N` (some centres unmarked) [1-342], for which the “CAF … at 10 micromolar: 10 minutes” value worked out at 80% and the “CAF … at 10 micromolar: 60 minutes” value worked out at 87%.

`C=CC(=O)N1CCN(c2nc(OC[C@@H]3CCCN3C)nc3c2CN(C(C)c2cc(O)ccc2C)C3)[C@@H](C)C1` (some centres unmarked) [1-54]: the “CAF … at 10 micromolar: 10 minutes” value is given as 70% and the “CAF … at 10 micromolar: 60 minutes” value amounted to 77%.

Consider `C=CC(=O)N1CCN(c2nc(OC[C@@H]3CCCN3C)nc3c2CN(Cc2ccccc2F)C3)C[C@@H]1CC#N` [1-102], for which the “CAF … at 10 micromolar: 10 minutes” value turned out to be 89% and the “CAF … at 10 micromolar: 60 minutes” value was 96%.

As for `C=CC(=O)N1CC2CC1CN2c1nc(OC[C@@H]2CCCN2C)nc2c1CN(C1CCc3ccccc31)C2` (some centres unmarked) [1-249], the “CAF … at 10 micromolar: 10 minutes” value worked out at 0%/ 0% and the “CAF … at 10 micromolar: 60 minutes” value amounted to 0%/ 0%.

Turning to `C=CC(=O)N1CCN(c2nc(OC[C@@H]3CCCN3CCF)nc3c2CN(C2CCc4ccccc42)C3)C[C@@H]1CC#N` (some centres unmarked) [1-151], the “CAF … at 10 micromolar: 10 minutes” value is 81% and the “CAF … at 10 micromolar: 60 minutes” value came to 91%.

On to `C=C(F)C(=O)N1CCN(c2nc(OC[C@@H]3CCCN3C)nc3c2CN(Cc2c(CC)ccc(O)c2OC)C3)C[C@@H]1CC#N` [1-313], for which the “CAF … at 10 micromolar: 10 minutes” value amounted to 87% and the “CAF … at 10 micromolar: 60 minutes” value is recorded as 95%.

Consider `C=CC(=O)N1CCN(c2nc(OC[C@@H]3CCCN3C)nc3c2CN(Cc2c(Cl)cccc2OC)C3)C[C@@H]1CC#N` [1-38], for which the “CAF … at 10 micromolar: 10 minutes” value is on record as 97%/ 97% and the “CAF … at 10 micromolar: 60 minutes” value is 97%/ 97%.

Consider `C=C(F)C(=O)N1CCN(c2nc(OC[C@@H]3CCCN3C)nc3c2CN(C2CCc4cccc(Cl)c42)C3)C[C@@H]1CC#N` (some centres unmarked) [1-154], for which the “CAF … at 10 micromolar: 10 minutes” value came to 52% and the “CAF … at 10 micromolar: 60 minutes” value is listed as 82%.

Turning to `C=CC(=O)N1CCN(c2nc(OC[C@@H]3CCCN3C)nc3c2CN(Cc2cc(OC)ccc2C)C3)[C@@H](C)C1` [1-2], the “CAF … at 10 micromolar: 10 minutes” value is on record as 0% and the “CAF … at 10 micromolar: 60 minutes” value came to 4%.

On to `C=CC(=O)N1CCN(c2nc(OC[C@@H]3CCCN3C)nc3c2CN(C(C)c2ccccc2C(C)C)C3)C[C@@H]1CC#N` (some centres unmarked) [1-189], for which the “CAF … at 10 micromolar: 10 minutes” value came to 57% and the “CAF … at 10 micromolar: 60 minutes” value is 61%.

Turning to `C=CC(=O)N1CCN(c2nc(OC[C@@H]3CCCN3C)nc3c2CN(C2CC(C)(C)c4ccc(O)cc42)C3)C[C@@H]1CC#N` (some centres unmarked) [1-194], the “CAF … at 10 micromolar: 10 minutes” value was 32%/ 32% and the “CAF … at 10 micromolar: 60 minutes” value is on record as 32%/ 32%.

In the case of `C=CC(=O)N1CCN(c2nc(OC[C@@H]3CCCN3C)nc3c2CN(C2CCc4ccccc42)C3)C[C@@H]1C(O)C(F)(F)F` (some centres unmarked) [1-118], the “CAF … at 10 micromolar: 10 minutes” value stood at 0%/ 0% and the “CAF … at 10 micromolar: 60 minutes” value came out at 0%/ 0%.

On to `C=CC(=O)N1CCN(c2nc(OC)nc3c2CN(Cc2cc(F)ccc2Cl)C3)C[C@@H]1CC#N` [1-76], for which the “CAF … at 10 micromolar: 10 minutes” value turned out to be 0% and the “CAF … at 10 micromolar: 60 minutes” value is recorded as 7%.

Regarding `C=CC(=O)N1CCN(c2nc(Oc3cccc4c3CN(C)C4)nc3c2CN(C2CCc4ccccc42)C3)C[C@@H]1CC#N` (some centres unmarked) [1-174], the “CAF … at 10 micromolar: 10 minutes” value was 9% and the “CAF … at 10 micromolar: 60 minutes” value is 28%.

As to `C=CC(=O)N1CCN(c2nc(OC[C@@H]3CCCO3)nc3c2CN(Cc2c(O)cccc2F)C3)C[C@@H]1CC#N` [1-95], the “CAF … at 10 micromolar: 10 minutes” value is 21% and the “CAF … at 10 micromolar: 60 minutes” value was determined as 70%.

`C=CC(=O)N1CCN(c2nc(Oc3cccc4ccn(C)c34)nc3c2CN(C2CCc4ccccc42)C3)C[C@@H]1CC#N` (some centres unmarked) [1-166]: the “CAF … at 10 micromolar: 10 minutes” value was 2% and the “CAF … at 10 micromolar: 60 minutes” value was 15%.

For `C=CC(=O)N1CCN(c2nc(OC[C@@H]3CCCN3C)nc3c2CN(C(=O)c2cccc(C(F)F)c2)C3)[C@@H](C)C1` [1-24], the “CAF … at 10 micromolar: 10 minutes” value was determined as 0%/ 0% and the “CAF … at 10 micromolar: 60 minutes” value worked out at 0%/ 0%.

As for `C=CC(=O)N1CCN(c2nc(OC[C@@H]3CCCN3C3CC(=O)C3)nc3c2CN(C2CCc4ccccc42)C3)C[C@@H]1CC#N` (some centres unmarked) [1-208], the “CAF … at 10 micromolar: 10 minutes” value is 0% and the “CAF … at 10 micromolar: 60 minutes” value is recorded as 18%.

Turning to `C=C(F)C(=O)N1CCN(c2nc(OC[C@@H]3CCCN3C)nc3c2CN(Cc2cc(O)c(C)cc2C)C3)C[C@@H]1CC#N` [1-327], the “CAF … at 10 micromolar: 10 minutes” value is 0% and the “CAF … at 10 micromolar: 60 minutes” value is 3%.
